Laboratory results: PMC4819940 (Cancer Chemotherapy and Pharmacology, 2016)
Where two headings read alike, the source gives them in different places.

Assays:
[1] = system: Japanese patients with advanced solid malignancies
Description: This was a phase 1, open-label, multicenter, dose escalation study. […] All doses were required to be taken in a fasted state (no caloric intake from 2 h before dosing to 1 h after dosing).
All evaluations during the bid dosing regimen were conducted in 21-day assessment cycles. Patients were enrolled to ensure a minimum of three and a maximum of six evaluable patients per cohort. Dose escalation and de-escalation were determined by the number of dose-limiting toxicities (DLTs; defined as any toxicity related to study drug as assessed by the investigator and not attributable to the disease under investigation) in a cohort. […] If one patient in a group of […] evaluable patients experienced a DLT, the cohort was expanded to include six evaluable patients. […] If ≥2 patients in a group of up to six evaluable patients experienced a DLT, irrespective of the number of patients enrolled, the dose was considered not tolerated and recruitment to the cohort and dose escalation was ceased. De-escalation to a lower intermediary dose could be considered in order to better define the MTD.
Based on emerging clinical data from the continuous dosing regimen of this study and data from the Western Study 1 (D3610C00001, NCT01226316), which was running in parallel with the Japanese study, an intermittent dosing regimen was also evaluated in Japanese patients and with a starting dose of 480 mg bid and a 4/3 dosing schedule.
Safety and tolerability were assessed in terms of adverse events (AEs), serious adverse events (SAEs), deaths, laboratory data, vital signs, electrocardiogram (ECG), assessment of glucose metabolism, and physical examination. AEs were graded according to the Common Terminology Criteria for Adverse Events (CTCAE) version 4.0. Any AE occurring after the first dose of study treatment and within 30 days of the last dose of study treatment was included in the AE summaries.

[2] = Plasma pharmacokinetics of AZD5363 after a single dose and multiple doses; assay type: in vivo, human; settings: human, plasma, oral, geometric mean (CV%)
Source text: […] area under the plasma concentration–time curve (AUC), maximum plasma (peak) drug concentration (Cmax), time to reach Cmax (tmax), apparent plasma clearance (CL/F), and oral volume of distribution at steady state (Vss/F).

In the case of NC1(C(=O)N[C@@H](CCO)c2ccc(Cl)cc2)CCN(c2ncnc3[nH]ccc23)CC1 [AZD5363], the “AE with outcome of death: Any” value ([1]; 80 mg bid continuous, n=3) is reported as 0 (0.0) number (%) of patients, the “AE with outcome of death: Any” value ([1]; 240 mg bid continuous, n=7) is reported as 0 (0.0) number (%) of patients and the “AE with outcome of death: Any” value ([1]; 320 mg bid continuous, n=6) is reported as 0 (0.0) number (%) of patients. The “AE with outcome of death: Any” value ([1]; 360 mg bid intermittent 4/3, n=8) was 0 (0.0) number (%) of patients, the “AE with outcome of death: Any” value ([1]; 400 mg bid continuous, n=5) was 0 (0.0) number (%) of patients and the “AE with outcome of death: Any” value ([1]; 480 mg bid intermittent 4/3, n=6) was 0 (0.0) number (%) of patients. For the same molecule, the “AE with outcome of death: Any” value ([1]; 640 mg bid intermittent 2/5, n=6) was 0 (0.0) number (%) of patients, the “AE with outcome of death: Any” value ([1]; Total, n=41) was 0 (0.0) number (%) of patients and the MTD ([1]; either of the intermittent dosing schedules) was “not reached”. For the same molecule, the “AEs of CTCAE grade ≥3: Any” value ([1]; human, in vivo) was 26 (63.4) number (%) of patients, the “AEs of CTCAE grade ≥3: Diarrhea” value ([1]; human, in vivo) was 7 (17.1) number (%) of patients and the “AEs of CTCAE grade ≥3: Hyperglycemia” value ([1]; human, in vivo) was 16 (39.0) number (%) of patients. For the same molecule, the “AEs of CTCAE grade ≥3: Lymphocyte count decreased” value ([1]; human, in vivo) was 3 (7.3) number (%) of patients, the “AEs of CTCAE grade ≥3: Neutrophil count decreased” value ([1]; human, in vivo) was 4 (9.8) number (%) of patients and the “AEs: Blood creatinine increased” value ([1]; human, in vivo) was 14 (34.1) number (%) of patients. The “AEs: Decreased appetite” value ([1]; human, in vivo) was 20 (48.8) number (%) of patients, the “AEs: Diarrhea” value ([1]; human, in vivo) was 32 (78.0) number (%) of patients and the “AEs: Hyperglycemia” value ([1]; human, in vivo) was 28 (68.3) number (%) of patients. The “AEs: Maculopapular rash” value ([1]; human, in vivo) was 23 (56.1) number (%) of patients, the “AEs: Nausea” value ([1]; human, in vivo) was 23 (56.1) number (%) of patients and the “AEs: Proteinuria” value ([1]; human, in vivo) was 16 (39.0) number (%) of patients. For the same molecule, the “AEs: Pyrexia” value ([1]; human, in vivo) was 20 (48.8) number (%) of patients, the “AEs: Stomatitis” value ([1]; human, in vivo) was 17 (41.5) number (%) of patients and the “AEs: White blood cell count decreased” value ([1]; human, in vivo) was 13 (31.7) number (%) of patients. For the same molecule, the “Adverse events (AEs): Any” value ([1]; human, in vivo) was 40 (97.6) number (%) of patients, the “SAE: Any” value ([1]; human, in vivo) was 3 (7.3) number (%) of patients and the “patients who experienced an AE of CTCAE grade ≥3” value ([1]; human, in vivo) was 63.4%. The “patients who experienced at least one AE” value ([1]; human, in vivo) was 97.6%, the “patients with AE diarrhea” value ([1]; human, in vivo) was 78.0% and the “patients with AE hyperglycemia” value ([1]; human, in vivo) was 68.3%. For the same molecule, the “patients with AE maculopapular rash” value ([1]; human, in vivo) was 56.1%, the “patients with AE nausea” value ([1]; human, in vivo) was 56.1% and the “patients with AEs leading to dose interruption” value ([1]; human, in vivo) was 39.0%. The “patients with CTCAE grade ≥3 diarrhea” value ([1]; human, in vivo) was 17.1%, the “patients with CTCAE grade ≥3 hyperglycemia” value ([1]; human, in vivo) was 39.0% and the “patients with a grade ≥3 AE considered to be treatment related” value ([1]; human, in vivo) was 58.5%. The “patients with discontinuation due to an AE” value ([1]; human, in vivo) was 12.2%, the DLTs reported ([1]; in vivo) was “No DLTs” and the “patients who experienced DLTs” value ([1]; in vivo) was “five”. The “patients who experienced an SAE” value ([1]; in vivo) was “Three”, the “deaths related to AEs” value ([1]; overall, all cohorts) was “no deaths” and the AUC ([2]; 80 mg, multiple doses, 80 mg bid continuous, n=3, read-out: AUCss) was 1520 ng·h/mL. It also gave an AUC ([2]; 80 mg, single dose, 80 mg bid continuous cohort, n=3, read-out: AUC) of 1260 ng·h/mL, an AUC ([2]; 240 mg, multiple doses, 240 mg bid continuous, n=7, read-out: AUCss) of 4840 ng·h/mL and an AUC ([2]; 240 mg, single dose, 240 mg bid continuous cohort, n=7, read-out: AUC) of 3290 ng·h/mL. It also gave an AUC ([2]; 320 mg, multiple doses, 320 mg bid continuous, n=4, read-out: AUCss) of 5770 ng·h/mL, an AUC ([2]; 320 mg, single dose, 320 mg bid continuous cohort, n=6, read-out: AUC) of 7110 ng·h/mL and an AUC ([2]; 360 mg, multiple doses, 360 mg bid intermittent 4/3, n=7, read-out: AUCss) of 5870 ng·h/mL. The AUC ([2]; 360 mg, single dose, 360 mg bid intermittent 4/3 cohort, n=8, read-out: AUC) was 4770 ng·h/mL, the AUC ([2]; 400 mg, multiple doses, 400 mg bid continuous, n=4, read-out: AUCss) was 9670 ng·h/mL and the AUC ([2]; 400 mg, single dose, 400 mg bid continuous cohort, n=5, read-out: AUC) was 4670 ng·h/mL. The AUC ([2]; 480 mg, multiple doses, 480 mg bid intermittent 4/3, n=6, read-out: AUCss) was 10900 ng·h/mL, the AUC ([2]; 480 mg, single dose, 480 mg bid intermittent 4/3 cohort, n=6, read-out: AUC) was 7210 ng·h/mL and the AUC ([2]; 640 mg, multiple doses, 640 mg bid intermittent 2/5, n=6, read-out: AUCss) was 14200 ng·h/mL. It also gave an AUC ([2]; 640 mg, single dose, 640 mg bid intermittent 2/5 cohort, n=6, read-out: AUC) of 11400 ng·h/mL.
